# Assay results reported in patent publication US12180207B2 (ARRAY BIOPHARMA INC., priority 2018, dated 2024).
# Columns and labels:
# [1] = target: recombinant human FGFR3 (amino acids R397-T806) (Homo sapiens (Human), UniProt P22607); test: FGFR3 enzyme activity assay (LanthaScreen TR-FRET); format: biochemical; conditions: 25 μM ATP, 10 min incubation at 22° C., average of multiple determinations if made, read-out: FGFR3 Enz FRET IC50
# Description: FGFR3 kinase activity was measured by the Invitrogen LanthaScreen™ Assay technology which directly measures the amount of substrate phosphorylation by TR-FRET using a fluorescently-labeled peptide and Europium-labeled antibody. Briefly, […] N-terminal GST-HIS6 fusion protein with a 3C cleavage site recombinant human FGFR3 (amino acids R397-T806) (ProQinase Cat. No. 1068-0000-1) was incubated with 100 nM Alexa Fluor® 647-Poly-GT Peptide Substrate (Life Technologies Cat. No. PV5836) and 25 μM ATP along with test compound in a buffer consisting of 250 mM HEPES, 25 mM MgCl2, 0.05% TritonX-100, pH 7.5, and 2% DMSO. […] After a 10 minute incubation at 22° C., an equal volume of 2 nM LanthaScreen® Eu-PY20 Antibody (Life Technologies Cat. No. PV5691) and 10 mM EDTA were added to quench the kinase reaction and start the detection reaction. After an additional 60 minute incubation at 22° C., the reaction was measured using a PerkinElmer EnVision multimode plate reader via TR-FRET dual wavelength detection, and the percent of control (POC) calculated using a ratiometric emission factor. 100 POC was determined using no test compounds and 0 POC was determined using no enzyme. The POC values were fit to a 4-parameter logistic curve as a function of the concentration of the compound, and the IC50 value is the point where the curve crosses 50 POC.
# [2] = target: FGFR3 (SEQ ID NO: 5, amino acids 449-759) (Homo sapiens (Human), UniProt P22607); test: LC/MS FGFR3 kobs assay (covalent protein modification); format: binding; conditions: 500 nM FGFR3, 3 μM compound
# Chain of FGFR3 (SEQ ID NO: 5, amino acids 449-759) (P22607 449-759): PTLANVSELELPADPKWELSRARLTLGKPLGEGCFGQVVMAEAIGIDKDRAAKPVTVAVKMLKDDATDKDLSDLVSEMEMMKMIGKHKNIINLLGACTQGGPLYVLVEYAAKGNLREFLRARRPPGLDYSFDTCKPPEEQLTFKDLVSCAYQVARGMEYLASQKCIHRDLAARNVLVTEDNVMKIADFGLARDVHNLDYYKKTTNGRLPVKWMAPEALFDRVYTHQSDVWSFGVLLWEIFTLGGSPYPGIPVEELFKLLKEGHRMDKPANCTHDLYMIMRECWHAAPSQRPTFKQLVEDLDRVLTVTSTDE
# Description: (§1) The LC/MS FGFR1 and FGFR3 kobs assays were conducted as follows. […] At each time point, the reaction was quenched with 20 μL of 0.4% formic acid. The extent of protein modification by each compound was determined by LC/MS on an Agilent Technologies 6520 Q-TOF LC/MS. Protein signals were then automatically deconvoluted using Agilent Masshunter software. Deconvoluted mass signals were exported to Tibco Spotfire data analysis program for further processing and normalization.
# (§2) Data analysis included five steps. First, the signals for the “DMSO Controls” were analyzed to determine the percent of signal associated with unmodified FGFR1 or FGFR3 at each time point. Next, the percent of the signal associated with the covalent modification was determined. Third, the average nonmodified “DMSO Control” signal was used to normalize the modified protein signals at each time point. The percent of unmodified protein was fit to an exponential decay model where A0 is the Percent Unmodified at the start of the reaction, and kobs is the observed rate constant over the time period.
# Table EC contains kobs values for compounds tested in these assays, presented as the average of multiple determinations if multiple determinations were made. ND=not determined.
# [3] = target: dephosphorylated FGFR1 (SEQ ID NO: 1, amino acids 458 to 765) (Homo sapiens (Human), UniProt P11362); test: FGFR enzyme binding assay (HTRF tracer displacement), FGFR1; conditions: 5 nM dephosphorylated FGFR1, average of multiple determinations if made
# Chain of dephosphorylated FGFR1 (SEQ ID NO: 1, amino acids 458 to 765) (P11362 458-765): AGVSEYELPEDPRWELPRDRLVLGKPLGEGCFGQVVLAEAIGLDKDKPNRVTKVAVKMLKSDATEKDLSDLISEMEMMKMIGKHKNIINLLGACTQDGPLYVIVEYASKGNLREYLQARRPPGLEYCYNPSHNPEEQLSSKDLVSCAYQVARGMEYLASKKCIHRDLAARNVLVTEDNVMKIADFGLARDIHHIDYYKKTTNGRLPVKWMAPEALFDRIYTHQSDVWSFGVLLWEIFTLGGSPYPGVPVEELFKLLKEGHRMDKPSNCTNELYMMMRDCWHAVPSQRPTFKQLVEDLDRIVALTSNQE
# Description: (§3) The potency of compounds inhibiting human isoforms of FGFR kinase was determined using Life Technologies' Homogeneous Time Resolved Fluorescence (HTRF)-based binding assay technology. […] After a 60 minute incubation at 22° C., the extent of tracer displacement was determined using a PerkinElmer EnVision multimode plate reader via HTRF dual wavelength detection, and the percent of control (POC) was calculated using a ratiometric emission factor. One hundred POC was determined using no test compound, and 0 POC was determined in the presence of 1 μM of an appropriate control inhibitor.
# [4] = target: recombinant human FGFR1 catalytic domain (amino acids 308-731) (Homo sapiens (Human), UniProt P11362); test: FGFR1 enzyme activity assay (LanthaScreen TR-FRET); format: biochemical; conditions: 20 min incubation at 22° C., average of multiple determinations if made, read-out: FGFR1 Enz FRET IC50
# Chain of recombinant human FGFR1 catalytic domain (amino acids 308-731) (P11362 other isoform, or with tags, fused parts or gaps): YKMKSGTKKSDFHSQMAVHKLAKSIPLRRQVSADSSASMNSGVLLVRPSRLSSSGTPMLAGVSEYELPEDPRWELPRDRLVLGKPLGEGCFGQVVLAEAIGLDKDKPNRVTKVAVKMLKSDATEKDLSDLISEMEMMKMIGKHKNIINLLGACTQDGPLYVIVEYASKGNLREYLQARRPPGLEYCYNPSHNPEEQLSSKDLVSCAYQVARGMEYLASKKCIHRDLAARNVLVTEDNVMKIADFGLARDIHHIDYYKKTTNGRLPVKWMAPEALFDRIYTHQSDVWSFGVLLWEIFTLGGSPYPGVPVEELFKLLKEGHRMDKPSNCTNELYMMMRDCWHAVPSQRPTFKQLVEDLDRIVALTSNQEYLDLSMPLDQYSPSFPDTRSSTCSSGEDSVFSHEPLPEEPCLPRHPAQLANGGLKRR
# Description: FGFR1 kinase activity was measured by the Invitrogen LanthaScreen™ Assay technology which directly measures the amount of substrate phosphorylation by Time-resolved fluorescence energy transfer (TR-FRET) using a fluorescently-labeled peptide and Europium-labeled antibody. Briefly, […] His-tagged recombinant human FGFR1 catalytic domain (amino acids 308-731) (Life Technologies Cat. No. PR4660A) was incubated with 100 nM Alexa Fluor® 647-Poly-GT Peptide Substrate (Life Technologies Cat. No. PV5836) and […] ATP along with test compound in a buffer consisting of 250 mM HEPES, 25 mM MgCl2, 0.05% TritonX-100, pH 7.5, and 2% DMSO. […] After a 20 minutes incubation at 22° C., an equal volume of 2 nM LanthaScreen® Eu-PY20 Antibody (Life Technologies Cat. No. PV5691) and 10 mM EDTA was added to quench the kinase reaction and start the detection reaction. After an additional 60 minute incubation at 22° C., the reaction was measured using a PerkinElmer EnVision multimode plate reader via TR-FRET dual wavelength detection, and the percent of control (POC) calculated using a ratiometric emission factor. 100 POC was determined using no test compounds and 0 POC was determined using no enzyme. The POC values were fit to a 4-parameter logistic curve as a function of the concentration of the compound, and the IC50 value is the point where the curve crosses 50 POC.
# [5] = target: phosphorylated FGFR3 (SEQ ID NO: 5, amino acids 449 to 759) (Homo sapiens (Human), UniProt P22607); test: FGFR enzyme binding assay (HTRF tracer displacement), FGFR3; conditions: 5 nM phosphorylated FGFR3, average of multiple determinations if made
# Chain of phosphorylated FGFR3 (SEQ ID NO: 5, amino acids 449 to 759) (P22607 449-759): as the sequence (P22607 449-759) above
# Description: as §3
# [6] = target: recombinant human FGFR2 cytoplasmic domain (amino acids 403-822) (Homo sapiens (Human), UniProt P21802); test: FGFR2 enzyme activity assay (LanthaScreen TR-FRET); format: biochemical; conditions: 15 μM ATP, 20 min incubation at 22° C., average of multiple determinations if made, read-out: FGFR2 Enz FRET IC50
# Chain of recombinant human FGFR2 cytoplasmic domain (amino acids 403-822) (P21802 402-821): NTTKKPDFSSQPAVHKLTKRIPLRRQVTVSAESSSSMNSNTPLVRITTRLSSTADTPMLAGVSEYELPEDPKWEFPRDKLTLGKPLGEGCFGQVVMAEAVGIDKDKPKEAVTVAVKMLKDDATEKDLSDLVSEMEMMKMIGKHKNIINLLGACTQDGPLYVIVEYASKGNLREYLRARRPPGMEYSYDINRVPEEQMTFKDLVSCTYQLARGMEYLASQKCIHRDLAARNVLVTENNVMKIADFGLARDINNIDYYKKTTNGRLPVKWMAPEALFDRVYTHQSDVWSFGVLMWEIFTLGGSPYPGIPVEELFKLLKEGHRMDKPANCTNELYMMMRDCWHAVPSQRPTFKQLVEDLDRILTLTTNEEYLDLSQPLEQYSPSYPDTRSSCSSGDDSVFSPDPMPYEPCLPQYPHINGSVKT
# Description: FGFR2 kinase activity was measured by the Invitrogen LanthaScreen™ Assay technology which directly measures the amount of substrate phosphorylation by TR-FRET using a fluorescently-labeled peptide and Europium-labeled antibody. Briefly, […] His-tagged recombinant human FGFR2 cytoplasmic domain (amino acids 403-822) (Life Technologies Cat. No. PR5332A) was incubated with 100 nM Alexa Fluor® 647-Poly-GT Peptide Substrate (Life Technologies Cat. No. PV5836) and 15 μM ATP along with test compound in a buffer consisting of 250 mM HEPES, 25 mM MgCl2, 0.05% TritonX-100, pH 7.5, and 2% DMSO. […] After a 20 minute incubation at 22° C., an equal volume of 2 nM LanthaScreen® Eu-PY20 Antibody (Life Technologies Cat. No. PV5691) and 10 mM EDTA were added to quench the kinase reaction and start the detection reaction. After an additional 60 minute incubation at 22° C., the reaction was measured using a PerkinElmer EnVision multimode plate reader via TR-FRET dual wavelength detection, and the percent of control (POC) calculated using a ratiometric emission factor. 100 POC was determined using no test compounds and 0 POC was determined using no enzyme. The POC values were fit to a 4-parameter logistic curve as a function of the concentration of the compound, and the IC50 value is the point where the curve crosses 50 POC.
# [7] = target: FGFR1 (SEQ ID NO: 1, amino acids 458-765) (Homo sapiens (Human), UniProt P11362); test: LC/MS FGFR1 kobs assay (covalent protein modification); format: binding; conditions: 500 nM FGFR1, 3 μM compound
# Chain of FGFR1 (SEQ ID NO: 1, amino acids 458-765) (P11362 458-765): as the sequence (P11362 458-765) above
# Description: as §1, §2
# Chain of recombinant human FGFR3 (amino acids R397-T806) (P22607 397-806): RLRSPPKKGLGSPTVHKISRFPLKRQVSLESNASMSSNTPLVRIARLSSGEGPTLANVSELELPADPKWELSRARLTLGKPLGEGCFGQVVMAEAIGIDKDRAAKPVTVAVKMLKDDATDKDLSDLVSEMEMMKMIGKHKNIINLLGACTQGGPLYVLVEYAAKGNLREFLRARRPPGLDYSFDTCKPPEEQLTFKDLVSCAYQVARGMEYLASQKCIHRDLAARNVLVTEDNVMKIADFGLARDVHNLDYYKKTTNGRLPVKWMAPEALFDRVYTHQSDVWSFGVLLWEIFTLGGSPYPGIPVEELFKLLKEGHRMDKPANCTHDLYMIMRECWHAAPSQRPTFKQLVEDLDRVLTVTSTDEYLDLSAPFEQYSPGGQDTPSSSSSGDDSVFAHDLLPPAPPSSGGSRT
SMILES,IC50 [1],FGFR3 Enz kobs [2],IC50 [3],IC50 [4],IC50 [5],IC50 [6],FGFR1 Enz kobs [7]
"C=CC(=O)N1CCC[C@@H](C(=O)N2CCC(n3cc(-c4cc(OC)c5c(C#N)cnn5c4)cn3)CC2)C1 [Example 17, (R)-6-(1-(1-(1-acryloylpiperidine-3-carbonyl)piperidin-4-yl)-1H-pyrazol-4-yl)-4-methoxypyrazolo[1,5-a]pyridine-3-carbonitrile]",6 nM,0.00163 min⁻¹,45 nM,17 nM,8 nM,7 nM,0.00041 min⁻¹
"C=CC(=O)N1CCN(c2cccc(-n3cc(-c4cc(OC)c5c(C#N)cnn5c4)cn3)c2)CC1 [Example 27, 6-(1-(3-(4-acryloylpiperazin-1-yl)phenyl)-1H-pyrazol-4-yl)-4-methoxypyrazolo[1,5-a]pyridine-3-carbonitrile]",21 nM,0.00184 min⁻¹,191 nM,63 nM,44 nM,13 nM,0.00017 min⁻¹
"C=CC(=O)N1CC2(CC(C(=O)N3CCC(n4cc(-c5cc(OC)c6c(C#N)cnn6c5)cn4)CC3)C2)C1 [Example 47, 6-(1-(1-(2-acryloyl-2-azaspiro[3.3]heptane-6-carbonyl)piperidin-4-yl)-1H-pyrazol-4-yl)-4-methoxypyrazolo[1,5-a]pyridine-3-carbonitrile]",4 nM,0.00501 min⁻¹,177 nM,35 nM,22 nM,5 nM,0.00093 min⁻¹
"C=CC(=O)N1CCC2(CC1)CC(C(=O)N1CCC(n3cc(-c4cc(OC)c5c(C#N)cnn5c4)cn3)CC1)C2 [Example 48, 6-(1-(1-(7-acryloyl-7-azaspiro[3.5]nonane-2-carbonyl)piperidin-4-yl)-1H-pyrazol-4-yl)-4-methoxypyrazolo[1,5-a]pyridine-3-carbonitrile]",7 nM,0.00114 min⁻¹,109 nM,11 nM,25 nM,3 nM,0.00071 min⁻¹
"C=CC(=O)N1CC[C@H](C(=O)N2CC[C@@H](n3cc(-c4cc(OC)c5c(C#N)cnn5c4)cn3)C2)C1 [Example 57, 6-(1-((R)-1-((S)-1-acryloylpyrrolidine-3-carbonyl)pyrrolidin-3-yl)-1H-pyrazol-4-yl)-4-methoxypyrazolo[1,5-a]pyridine-3-carbonitrile]",6 nM,0.0015 min⁻¹,214 nM,34 nM,25 nM,7 nM,0.00051 min⁻¹
"C=CC(=O)N1CC[C@@H](C(=O)N2CC[C@@H](n3cc(-c4cc(OC)c5c(C#N)cnn5c4)cn3)C2)C1 [Example 58, 6-(1-((R)-1-((R)-1-acryloylpyrrolidine-3-carbonyl)pyrrolidin-3-yl)-1H-pyrazol-4-yl)-4-methoxypyrazolo[1,5-a]pyridine-3-carbonitrile]",8 nM,0.00158 min⁻¹,290 nM,55 nM,41 nM,8 nM,0.00058 min⁻¹
"C=CC(=O)N1CCC[C@H](C(=O)N2CC[C@H](n3cc(-c4cc(OC)c5c(C#N)cnn5c4)cn3)C2)C1 [Example 63, 6-(1-((S)-1-((S)-1-acryloylpiperidine-3-carbonyl)pyrrolidin-3-yl)-1H-pyrazol-4-yl)-4-methoxypyrazolo[1,5-a]pyridine-3-carbonitrile]",3 nM,0.0013 min⁻¹,199 nM,26 nM,62 nM,7 nM,0.0005 min⁻¹
"C=CC(=O)Nc1cccc(C(=O)N2CC[C@H](n3cc(-c4cc(OC)c5c(C#N)cnn5c4)cn3)C2)c1 [Example 67, (S)-N-(3-(3-(4-(3-cyano-4-methoxypyrazolo[1,5-a]pyridin-6-yl)-1H-pyrazol-1-yl)pyrrolidine-1-carbonyl)phenyl)acrylamide]",5 nM,0.00341 min⁻¹,47 nM,8 nM,12 nM,3 nM,0.00146 min⁻¹
"C=CC(=O)N1CC[C@@H](C(=O)N2CC[C@H](n3cc(-c4cc(OC)c5c(C#N)cnn5c4)cn3)C2)C1 [Example 72, 6-(1-((S)-1-((R)-1-acryloylpyrrolidine-3-carbonyl)pyrrolidin-3-yl)-1H-pyrazol-4-yl)-4-methoxypyrazolo[1,5-a]pyridine-3-carbonitrile]",3 nM,0.00117 min⁻¹,36 nM,25 nM,7 nM,5 nM,0.00049 min⁻¹
